Experimental data reported in ChEMBL document CHEMBL1201862, “PubChem BioAssay data set” (2004).
Calls of active or inactive are those of the source.

Assays:
[1] = biological target: Voltage-dependent T-type calcium channel subunit alpha-1H (Homo sapiens, UniProt O95180); assay type: functional;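 also: channel activity triggered by adding a high calcium stimulation buffer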
[2] = A cytotoxicity screen of small molecule inhibitors of the PhoP region in Salmonella typhi identified in the primary screen. [Related pubchem assays: 1850, 1864, 1985 ]; assay type: functional
[3] = IC50 of Artemis nuclease activity blockers – biochemical, fluorescence intensity, dose response (AID 720701); assay type: functional;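 also: Artemis endonuclease enzyme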
[4] = viability of uninfected HEp-2 cells – cell-based, HTS, cytotoxicity control for RSV inhibitor project, dose response (AID 2410); assay type: functional; conditions: human respiratory syncytial virus
Estrogen receptor beta [5] = biological target: T1, Estrogen receptor beta (Homo sapiens, UniProt Q92731);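 also: recombinant ER-beta bound to coactivator SRC1 peptide in presence of estradiol agonist; inhibitors block coactivator peptide binding and lower the FRET signal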
Estrogen receptor beta [6] = biological target: T1, Estrogen receptor beta; assay: blockers of SRC-3 recruitment to ERβ – biochemical, ELISA, streptavidin-HRP readout, orthogonal assay, confirmation (AID 1060)
[7] = Luminescence Cell-Based Dose Response HTS to Identify Inhibitors of 5'UTR Stem-Loop Driven Prion Protein mRNA Translation in H4 Neuroglioblastoma Cells. [Related pubchem assays: 1827 (Project Summary), 1813 (Primary HTS)]; assay type: functional
[8] = alpha-synuclein stem-loop luciferase translation blockers – H4 neuroglioma cells, luminescence, confirmation (AID 1988); assay type: functional, cell-based
[9] = biological target: T2, Calpain-2 catalytic subunit (Sus scrofa, UniProt P43367); assay: m-calpain protease blockers, concentration series – biochemical, fluorogenic peptide substrate, dose response (AID 1420); assay type: functional
T2 sequence (P43367 whole entry): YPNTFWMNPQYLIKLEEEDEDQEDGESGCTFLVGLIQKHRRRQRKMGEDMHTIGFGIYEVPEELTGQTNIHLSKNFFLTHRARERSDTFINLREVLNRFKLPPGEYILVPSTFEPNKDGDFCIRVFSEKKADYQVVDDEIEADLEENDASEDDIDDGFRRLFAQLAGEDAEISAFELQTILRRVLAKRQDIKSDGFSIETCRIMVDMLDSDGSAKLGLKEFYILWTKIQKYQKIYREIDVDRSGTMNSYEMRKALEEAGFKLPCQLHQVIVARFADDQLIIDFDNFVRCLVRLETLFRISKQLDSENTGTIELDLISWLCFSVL

[10] = biological target: FAD-linked sulfhydryl oxidase ALR (Homo sapiens, UniProt P55789); assay: ALR-catalysed DTT oxidation blockers – biochemical, H2O2 detection, luminescence, cherry-pick, dose response (AID 493248)
[11] = biological target: T3, Rac GTPase-activating protein 1 (Homo sapiens, UniProt Q9H0H5); assay: blockers of MgcRacGAP-driven Rac1 GTP hydrolysis – biochemical, ADP Hunter fluorescence, primary and confirmatory, confirmation (AID 624330); assay type: functional
T3 sequence (Q9H0H5 whole entry): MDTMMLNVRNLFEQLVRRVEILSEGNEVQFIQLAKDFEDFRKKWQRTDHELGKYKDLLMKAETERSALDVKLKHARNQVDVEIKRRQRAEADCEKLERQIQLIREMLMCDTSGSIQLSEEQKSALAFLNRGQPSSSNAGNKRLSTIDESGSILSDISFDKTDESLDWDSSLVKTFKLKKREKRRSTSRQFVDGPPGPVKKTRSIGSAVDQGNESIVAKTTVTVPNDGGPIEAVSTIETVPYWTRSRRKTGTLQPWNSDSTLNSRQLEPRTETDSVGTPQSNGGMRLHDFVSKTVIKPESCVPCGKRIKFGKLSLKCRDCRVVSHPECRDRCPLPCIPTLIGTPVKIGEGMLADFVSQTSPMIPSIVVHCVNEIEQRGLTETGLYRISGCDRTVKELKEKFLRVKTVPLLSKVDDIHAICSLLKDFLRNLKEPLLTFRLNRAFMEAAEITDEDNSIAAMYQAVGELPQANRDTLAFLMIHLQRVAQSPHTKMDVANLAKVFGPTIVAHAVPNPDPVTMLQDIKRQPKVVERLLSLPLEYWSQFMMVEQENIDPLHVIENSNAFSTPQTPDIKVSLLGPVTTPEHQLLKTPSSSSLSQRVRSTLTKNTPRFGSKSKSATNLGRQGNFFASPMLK

[12] = Luminescence Cell-Based Dose Retest to Confirm Inhibitors of Cancer Stem Cells. [Related pubchem assays (depositor defined):AID2717, AID2721]; assay type: functional; conditions: Homo sapiens
[13] = viability loss of HPDE-C7K cells – cell-based, fluorescence, HTS, primary screen (AID 431); assay type: functional; conditions: Homo sapiens
[14] = HPDE-C7 pancreatic duct cell viability loss – fluorescence, HTS (AID 430); assay type: functional, cell-based; conditions: Homo sapiens
Cytochrome P450 2D6 = Cytochrome P450 2D6 (Homo sapiens, UniProt P10635);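 also: CYP2D6 member of a cytochrome P450 panel assay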
Cytochrome P450 2C9 = Cytochrome P450 2C9 (Homo sapiens, UniProt P11712)
Leucine aminopeptidase = biological target: T4, Leucine aminopeptidase (Plasmodium falciparum 3D7, UniProt Q8IL11); assay: P. falciparum M17LAP inhibitors, primary screen, biochemical, fluorogenic H-Leu-NHMec substrate, 1536-well (AID 1619); assay type: functional
T4 sequence (Q8IL11 whole entry): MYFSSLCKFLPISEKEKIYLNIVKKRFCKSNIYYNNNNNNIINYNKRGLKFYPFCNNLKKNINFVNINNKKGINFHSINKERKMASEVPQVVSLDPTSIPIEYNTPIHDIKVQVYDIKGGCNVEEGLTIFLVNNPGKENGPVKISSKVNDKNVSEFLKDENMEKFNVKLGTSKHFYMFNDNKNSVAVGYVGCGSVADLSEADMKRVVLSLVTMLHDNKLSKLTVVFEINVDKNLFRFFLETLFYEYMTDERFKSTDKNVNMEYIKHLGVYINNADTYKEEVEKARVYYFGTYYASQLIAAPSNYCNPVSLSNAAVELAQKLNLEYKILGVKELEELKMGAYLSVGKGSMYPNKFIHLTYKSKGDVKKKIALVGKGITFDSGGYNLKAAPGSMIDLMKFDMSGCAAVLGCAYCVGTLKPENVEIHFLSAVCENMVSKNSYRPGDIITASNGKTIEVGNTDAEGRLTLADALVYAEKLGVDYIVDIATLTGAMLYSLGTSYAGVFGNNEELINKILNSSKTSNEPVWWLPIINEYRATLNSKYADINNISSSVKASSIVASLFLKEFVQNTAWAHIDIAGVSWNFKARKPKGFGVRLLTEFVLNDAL

Protein RecA = biological target: T5, Protein RecA (Mycobacterium tuberculosis, UniProt P9WHJ3); assay: Fluorescence Cell-Free Homogeneous Dose Retest to Identify Inhibitors of RecA-Intein Splicing Activity. [Related pubchem assays (depositor defined):AID2097, AID2223, AID489010, AID492950]; assay type: functional
T5 sequence (P9WHJ3 whole entry): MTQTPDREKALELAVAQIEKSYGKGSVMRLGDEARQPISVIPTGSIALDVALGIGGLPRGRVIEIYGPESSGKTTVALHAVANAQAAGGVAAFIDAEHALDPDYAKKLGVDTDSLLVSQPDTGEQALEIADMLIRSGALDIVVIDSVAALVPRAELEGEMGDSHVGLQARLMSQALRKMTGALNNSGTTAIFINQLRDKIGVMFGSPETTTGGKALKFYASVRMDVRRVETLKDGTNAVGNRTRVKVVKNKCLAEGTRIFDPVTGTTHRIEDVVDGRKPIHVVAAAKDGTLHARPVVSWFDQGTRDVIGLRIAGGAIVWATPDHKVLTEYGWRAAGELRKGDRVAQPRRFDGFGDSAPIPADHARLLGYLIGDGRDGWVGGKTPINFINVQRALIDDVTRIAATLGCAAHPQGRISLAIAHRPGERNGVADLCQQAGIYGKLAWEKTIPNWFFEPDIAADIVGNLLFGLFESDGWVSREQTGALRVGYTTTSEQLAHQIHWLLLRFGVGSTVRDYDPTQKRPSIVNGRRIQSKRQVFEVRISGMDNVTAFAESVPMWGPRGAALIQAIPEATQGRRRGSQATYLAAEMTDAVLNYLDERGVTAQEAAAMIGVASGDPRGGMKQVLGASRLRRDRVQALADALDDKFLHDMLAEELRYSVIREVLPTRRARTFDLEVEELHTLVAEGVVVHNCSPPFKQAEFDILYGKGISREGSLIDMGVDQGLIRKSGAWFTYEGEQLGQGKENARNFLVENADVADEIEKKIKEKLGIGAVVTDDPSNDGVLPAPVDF

[15] = biological target: T6, Replicative DNA helicase DnaB (Mycobacterium tuberculosis, UniProt P9WMR3); assay: DnaB intein splicing inhibitors, dose response, biochemical, cell-free fluorescence (AID 449749); assay type: functional
T6 sequence (P9WMR3 whole entry): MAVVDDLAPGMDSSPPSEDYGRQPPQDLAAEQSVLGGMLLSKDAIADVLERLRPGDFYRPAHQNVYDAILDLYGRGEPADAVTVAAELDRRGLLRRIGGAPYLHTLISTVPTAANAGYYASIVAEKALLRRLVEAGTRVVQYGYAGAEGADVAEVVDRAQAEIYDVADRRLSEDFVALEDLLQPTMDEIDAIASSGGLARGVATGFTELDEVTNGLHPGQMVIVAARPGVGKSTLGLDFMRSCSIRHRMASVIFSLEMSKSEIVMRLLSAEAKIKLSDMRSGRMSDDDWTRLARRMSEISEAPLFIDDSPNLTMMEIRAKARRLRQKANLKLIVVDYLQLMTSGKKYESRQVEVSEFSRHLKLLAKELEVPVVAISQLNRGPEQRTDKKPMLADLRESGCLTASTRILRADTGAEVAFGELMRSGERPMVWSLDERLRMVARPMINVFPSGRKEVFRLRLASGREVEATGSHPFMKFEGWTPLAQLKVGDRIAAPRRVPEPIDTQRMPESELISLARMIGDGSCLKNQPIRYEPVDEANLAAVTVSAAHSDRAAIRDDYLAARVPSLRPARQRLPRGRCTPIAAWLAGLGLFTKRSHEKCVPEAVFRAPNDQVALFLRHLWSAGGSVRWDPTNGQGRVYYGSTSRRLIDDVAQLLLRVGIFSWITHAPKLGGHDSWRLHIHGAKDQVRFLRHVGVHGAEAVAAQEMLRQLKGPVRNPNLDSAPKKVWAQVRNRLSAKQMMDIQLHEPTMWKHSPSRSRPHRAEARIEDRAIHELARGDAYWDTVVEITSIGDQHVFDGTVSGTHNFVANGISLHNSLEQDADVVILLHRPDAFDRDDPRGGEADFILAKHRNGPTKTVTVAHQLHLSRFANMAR

T1 sequence (Q92731 whole entry): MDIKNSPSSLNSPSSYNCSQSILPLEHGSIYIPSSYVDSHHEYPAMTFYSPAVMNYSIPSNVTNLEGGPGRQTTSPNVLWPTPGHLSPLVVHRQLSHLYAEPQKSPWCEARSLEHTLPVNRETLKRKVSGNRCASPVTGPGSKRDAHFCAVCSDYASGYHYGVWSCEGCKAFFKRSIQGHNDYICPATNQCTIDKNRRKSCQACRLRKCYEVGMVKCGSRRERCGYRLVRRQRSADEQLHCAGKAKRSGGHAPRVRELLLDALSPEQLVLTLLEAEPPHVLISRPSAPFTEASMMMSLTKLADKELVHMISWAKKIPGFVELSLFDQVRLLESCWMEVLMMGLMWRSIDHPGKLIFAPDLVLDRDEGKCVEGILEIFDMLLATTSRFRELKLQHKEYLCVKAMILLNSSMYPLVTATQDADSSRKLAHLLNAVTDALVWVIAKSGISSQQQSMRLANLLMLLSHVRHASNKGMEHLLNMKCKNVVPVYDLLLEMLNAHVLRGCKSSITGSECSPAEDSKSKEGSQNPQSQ
Voltage-dependent T-type calcium channel subunit alpha-1H, sequence (O95180 whole entry): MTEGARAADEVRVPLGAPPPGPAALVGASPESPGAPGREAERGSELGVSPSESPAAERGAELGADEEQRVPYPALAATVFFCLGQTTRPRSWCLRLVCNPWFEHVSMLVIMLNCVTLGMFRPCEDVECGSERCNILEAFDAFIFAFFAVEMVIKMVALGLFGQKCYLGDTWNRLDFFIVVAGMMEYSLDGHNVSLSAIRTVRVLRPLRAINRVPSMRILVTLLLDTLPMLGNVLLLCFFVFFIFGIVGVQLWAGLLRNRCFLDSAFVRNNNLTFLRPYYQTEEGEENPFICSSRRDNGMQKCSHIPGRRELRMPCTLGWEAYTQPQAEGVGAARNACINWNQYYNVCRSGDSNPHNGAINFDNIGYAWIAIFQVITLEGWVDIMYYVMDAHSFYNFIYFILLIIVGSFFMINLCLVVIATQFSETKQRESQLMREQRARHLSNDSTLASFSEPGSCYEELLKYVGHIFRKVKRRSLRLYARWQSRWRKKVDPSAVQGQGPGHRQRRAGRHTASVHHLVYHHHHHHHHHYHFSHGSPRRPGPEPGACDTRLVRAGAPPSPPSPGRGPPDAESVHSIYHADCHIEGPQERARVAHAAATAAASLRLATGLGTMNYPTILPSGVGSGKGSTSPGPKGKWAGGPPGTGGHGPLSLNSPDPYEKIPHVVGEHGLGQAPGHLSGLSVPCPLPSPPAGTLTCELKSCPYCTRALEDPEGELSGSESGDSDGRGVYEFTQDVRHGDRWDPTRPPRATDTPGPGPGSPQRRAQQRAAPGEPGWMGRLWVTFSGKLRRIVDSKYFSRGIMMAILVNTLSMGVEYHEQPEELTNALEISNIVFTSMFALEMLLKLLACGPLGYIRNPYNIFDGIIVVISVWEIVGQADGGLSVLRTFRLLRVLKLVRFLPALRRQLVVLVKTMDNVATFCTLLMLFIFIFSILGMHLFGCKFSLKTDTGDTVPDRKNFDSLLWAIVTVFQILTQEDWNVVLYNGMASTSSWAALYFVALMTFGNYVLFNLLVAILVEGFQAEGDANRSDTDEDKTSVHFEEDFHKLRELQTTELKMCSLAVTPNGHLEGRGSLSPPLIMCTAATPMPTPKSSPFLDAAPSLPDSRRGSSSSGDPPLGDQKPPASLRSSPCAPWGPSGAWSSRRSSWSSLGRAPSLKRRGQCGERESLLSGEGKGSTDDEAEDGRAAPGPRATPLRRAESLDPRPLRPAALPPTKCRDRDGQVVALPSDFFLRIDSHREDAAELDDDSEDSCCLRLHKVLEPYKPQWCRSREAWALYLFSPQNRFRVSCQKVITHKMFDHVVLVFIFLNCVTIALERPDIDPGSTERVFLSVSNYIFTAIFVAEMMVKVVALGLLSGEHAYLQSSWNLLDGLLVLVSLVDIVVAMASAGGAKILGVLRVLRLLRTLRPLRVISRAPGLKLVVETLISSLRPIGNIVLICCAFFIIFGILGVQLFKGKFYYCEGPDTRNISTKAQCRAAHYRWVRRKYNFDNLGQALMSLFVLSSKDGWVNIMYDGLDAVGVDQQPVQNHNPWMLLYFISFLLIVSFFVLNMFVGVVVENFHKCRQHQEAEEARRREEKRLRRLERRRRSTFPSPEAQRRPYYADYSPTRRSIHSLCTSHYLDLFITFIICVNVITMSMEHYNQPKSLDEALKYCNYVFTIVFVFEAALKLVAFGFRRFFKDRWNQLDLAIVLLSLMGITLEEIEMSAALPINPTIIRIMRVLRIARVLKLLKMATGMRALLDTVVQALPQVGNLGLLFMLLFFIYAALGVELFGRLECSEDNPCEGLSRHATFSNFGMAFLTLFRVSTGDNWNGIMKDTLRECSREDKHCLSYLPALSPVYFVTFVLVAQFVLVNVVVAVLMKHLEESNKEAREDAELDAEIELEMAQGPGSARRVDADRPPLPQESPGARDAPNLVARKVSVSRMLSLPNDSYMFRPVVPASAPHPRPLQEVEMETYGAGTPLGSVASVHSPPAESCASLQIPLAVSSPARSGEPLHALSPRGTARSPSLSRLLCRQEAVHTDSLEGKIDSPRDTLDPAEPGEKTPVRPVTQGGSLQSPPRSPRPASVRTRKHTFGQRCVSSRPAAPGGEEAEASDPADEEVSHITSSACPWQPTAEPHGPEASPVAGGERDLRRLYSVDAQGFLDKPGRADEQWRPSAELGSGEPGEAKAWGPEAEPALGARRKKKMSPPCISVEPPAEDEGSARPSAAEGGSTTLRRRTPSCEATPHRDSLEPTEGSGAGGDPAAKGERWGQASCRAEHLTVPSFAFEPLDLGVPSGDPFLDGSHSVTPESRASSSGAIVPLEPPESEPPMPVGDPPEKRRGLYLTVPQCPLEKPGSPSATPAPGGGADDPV
FAD-linked sulfhydryl oxidase ALR, sequence (P55789 whole entry): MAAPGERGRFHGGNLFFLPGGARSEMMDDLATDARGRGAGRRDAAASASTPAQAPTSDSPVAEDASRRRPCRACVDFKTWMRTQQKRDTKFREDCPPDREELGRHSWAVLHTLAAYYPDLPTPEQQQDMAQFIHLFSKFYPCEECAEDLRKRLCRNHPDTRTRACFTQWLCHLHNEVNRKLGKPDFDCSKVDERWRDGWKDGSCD
Cytochrome P450 2D6, sequence (P10635 whole entry): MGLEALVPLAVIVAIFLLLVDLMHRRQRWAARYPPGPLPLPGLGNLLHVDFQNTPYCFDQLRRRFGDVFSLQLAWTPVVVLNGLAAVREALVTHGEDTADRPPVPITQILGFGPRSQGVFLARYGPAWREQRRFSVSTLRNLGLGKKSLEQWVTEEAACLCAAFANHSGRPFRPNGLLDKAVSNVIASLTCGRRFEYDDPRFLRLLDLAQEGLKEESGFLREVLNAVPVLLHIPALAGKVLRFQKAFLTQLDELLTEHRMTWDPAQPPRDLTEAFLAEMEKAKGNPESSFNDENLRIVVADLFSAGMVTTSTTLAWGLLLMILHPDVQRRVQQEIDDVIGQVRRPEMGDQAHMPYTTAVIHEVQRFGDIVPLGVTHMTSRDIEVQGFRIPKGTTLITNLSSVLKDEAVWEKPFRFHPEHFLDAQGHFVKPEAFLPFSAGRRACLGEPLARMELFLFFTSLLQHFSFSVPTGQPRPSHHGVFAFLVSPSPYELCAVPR
Cytochrome P450 2C9, sequence (P11712 whole entry): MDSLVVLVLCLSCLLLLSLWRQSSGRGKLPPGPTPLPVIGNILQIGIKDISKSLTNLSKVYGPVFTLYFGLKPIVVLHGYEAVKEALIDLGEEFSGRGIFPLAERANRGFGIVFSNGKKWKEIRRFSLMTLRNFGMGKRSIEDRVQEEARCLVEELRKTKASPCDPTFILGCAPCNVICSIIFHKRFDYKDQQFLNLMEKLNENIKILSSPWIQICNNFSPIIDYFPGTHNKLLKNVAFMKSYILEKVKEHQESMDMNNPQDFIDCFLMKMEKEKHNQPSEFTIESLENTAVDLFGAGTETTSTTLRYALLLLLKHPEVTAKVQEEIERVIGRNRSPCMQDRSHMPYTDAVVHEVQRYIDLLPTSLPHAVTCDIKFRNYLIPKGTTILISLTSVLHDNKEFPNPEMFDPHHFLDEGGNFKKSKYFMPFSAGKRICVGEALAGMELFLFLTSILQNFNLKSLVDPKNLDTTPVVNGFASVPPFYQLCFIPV

In the case of `CCC1Oc2ccc(C)cc2N(CC(=O)NCC2COc3ccccc3O2)C1=O` (stereo unspecified), the EC50 [1] is reported as 5.63 µM (active) and the EC50 [2] is reported as > 50 µM (active).
In the case of `Cc1ccc(Cn2c(C)nc3c(c2=O)c2nc4ccccc4nc2n3Cc2ccco2)cc1`, the IC50 [3] is reported as > 20 µM (inactive) and the CC50 [4] is reported as 29 µM (active).
For `CC(C)(C)c1nnc2sc(SC/C(O)=C(\C#N)c3nc4ccccc4[nH]3)nn2c1=O`, the IC50 (Estrogen receptor beta [5]) was 4 µM (active) and the IC50 (Estrogen receptor beta [6]) was 40.6 µM (not active).
With `O=[N+]([O-])c1cc(/C=N/n2cnnc2)ccc1N1CCCC1` the EC50 [7] was 16.9 µM (active), the EC50 [8] was 9.55 µM (active) and the IC50 [9] was 36.6 µM (not active).
In the case of `O=C(N/N=C/c1ccc(O)c(O)c1)C1c2ccccc2Oc2ccccc21`, the IC50 [3] is reported as > 20 µM (inactive), the AC50 [10] is reported as 0.439 µM (active) and the IC50 [11] is reported as 50.6 µM (active).
With `CCCN(CCC)CC(=O)Nc1cccc2c1OCO2` the EC50 [2] was > 50 µM (active).
For `CCCCN(C)c1nc(-c2ccco2)c2c(c1C#N)CC(C)(C)OC2`, the AC50 [12] was 7.53 µM (active), the EC50 [13] was 13.9 µM (active) and the EC50 [14] was 13.9 µM (active).
With `O=C(CCC1CCCCC1)Nc1c2c(nn1-c1ccc(F)cc1)CS(=O)(=O)C2` the EC50 [13] was > 20 µM (not active), the EC50 [14] was > 20 µM (not active) and the AC50 (Cytochrome P450 2D6) was 11.2 µM (inconclusive). For the same compound, the AC50 (Cytochrome P450 2C9) was 12.6 µM (inconclusive).
For `Cc1ccc(SCc2n[nH]c3c2C2(CCSCC2)C(C#N)=C(N)O3)cc1`, the IC50 (Leucine aminopeptidase) was 91 µM (active), the EC50 (Protein RecA) was 2.42 µM (active) and the AC50 [15] was 2.94 µM (active).
In the case of `CC(C)(C)OC(=O)NCCCC[C@H](NC(=O)c1[nH]cnc1C(=O)NCc1ccccc1)C(=O)OC(C)(C)C`, the IC50 [9] is reported as 10.5 µM (not active).
With `CCOC(=O)c1c(NC(=O)C2C3C=CC(C3)C2C(=O)O)sc2c1CCC(C)C2` (stereo unspecified) the IC50 (Leucine aminopeptidase) was 15.7 µM (active).
For `Cc1ccccc1C(=O)Nc1nncs1`, the IC50 (Leucine aminopeptidase) was 25.4 µM (active).
For `N#CC(C#N)=C(N)CSc1cccc[n+]1[O-]`, the IC50 [9] was > 50 µM (not active).
For `O=C(CC1Sc2ccccc2NC1=O)Nc1cccc(C(=O)O)c1` (stereo unspecified), the IC50 (Leucine aminopeptidase) was 2.94 µM (active).
In the case of `O=C(Cc1cccs1)Nc1ccc(-c2nnn(CC(=O)N3CCOCC3)n2)cc1`, the IC50 (Estrogen receptor beta [5]) is reported as 2.92 µM (active) and the IC50 (Estrogen receptor beta [6]) is reported as > 50 µM (not active).
For `O=c1oc2ccccc2nc1/C=C(\O)c1ccccc1`, the EC50 [2] was > 50 µM (active).
